For one assay, the system named is severe diffuse ARDS. Nature of the assay: Case observation: ARDS patient sedated with clonidine under spontaneous ventilation-pressure support and high PEEP. It is filed as in vivo, human.
Another assay concerns sedation. The settings on record: continuous infusion for sedation; cited from earlier work.

Each structure is given as a SMILES string. Where only a bound is given, the exact number is not on record here.

Regarding `NC[C@H](O)c1ccc(O)c(O)c1` [noradrenaline], the mean arterial pressure in the assay with severe diffuse ARDS (noradrenaline 0.45 μg·kg-1·min-1 lowered to 0.01 μg·kg-1·min-1, forced diuresis) was > 100 mm Hg.

For `Cc1cccc([C@H](C)c2cnc[nH]2)c1C` [dexmedetomidine], in the assay on sedation, the “dosage at which ceiling effect is observed” value is 1.5 µg/kg/h.

Turning to `Clc1cccc(Cl)c1N=C1NCCN1` [clonidine], the “P/F (PaO2/FiO2)” value in the assay with severe diffuse ARDS (human, in vivo) was 262. The Ramsay score in the assay on severe diffuse ARDS (under clonidine 1 μg·kg-1·h-1, progressively lowered from Ramsay 5-6, patient communicated with family on D5) is 2-3.

Turning to `CC(CCc1ccc(O)cc1)NCCc1ccc(O)c(O)c1` (centres unmarked) [dobutamine], in the assay on severe diffuse ARDS (at all intervals, dobutamine D3 to D6, 2 then 1 μg·kg-1·min-1), the “Superior vena cava O2 saturation” value is > 70%.
